Holding throughout (format): cell-based, human
Test [1] deals with sporadic PD patient fibroblasts. The test can be described thus: Mitochondrial membrane potential (MMP, TMRM) in sporadic PD patient fibroblasts. As to conditions: 24 h, 3 sporadic PD patient fibroblasts; for EC50: 8-point range 0.06 nM-300 nM; for activity at 60 pM: max response with lowest dose of compound (0.06 nM), read-out: MMP % of vehicle, bottom %. How it is done: (§1) Primary fibroblast cells were cultured continuously in Glucose based medium (high glucose (4500 mg/L) Dulbecco's Modified Eagle's medium (DMEM; Sigma-Aldrich) supplemented with 10% fetal bovine serum (Sigma-Aldrich), 100 IU/mL penicillin, 100 μg/mL streptomycin (Lonza), 1 mM sodium pyruvate (Sigma-Aldrich) and 50 μg/mL uridine (Sigma-Aldrich)). Unless otherwise stated, 24 hours prior to analysis, the Glucose based medium was exchanged for Galactose based medium (glucose-free DMEM (Gibco) with the same supplementation and in addition, 5 mM galactose (Sigma-Aldrich)). All cells were assessed between passage 6-10.
Fibroblasts were cultured and plated into a greiner black 384 μClear® plate at a concentration of 1000 cells per well in 50 μl of media volume. The plates are left overnight in an incubator to allow the fibroblasts to adhere to the plate surface. The following morning the Glucose based medium is replaced with 25 μl of Galactose based medium. The plates were then dosed with the compounds using an ECHO® 550 liquid handling system. The wells were dosed to provide an 8-point concentration range of 0.06 nM-300 nM of compound. After dosing the wells are topped up with a further 25 μl of Galactose based medium and then left in an incubator for 24 hours. After 24 hours, the medium is removed from the wells and replaced with 25 μl phenol free Minimal essential medium supplemented with 10% FBS, 1% Penicillin-streptomycin, 1% sodium pyruvate, 0.1% uridine, 1% non-essential amino acids and 1% MEM vitamins with 80 nM TMRM (Sigma) and 10 μM Hoechst Stain (Sigma). The plate is returned to the incubator for another hour after which the stain medium is removed and replaced with 25 μl Phenol free MEM. The plate is then imaged using an IN Cell high content microscope (GE Healthcare) with fields of view per well in 2 channels, Cy3 excitation 542 nm, emission 604-64 nm; and the DAPI excitation 350 nm, emission 450-55 nm at 37° C. with CO2. After imaging the plate is disposed of and the images are Data mined using the INCell developer Toolkit (GE Healthcare).
After the assays had been repeated in triplicate per line and compound the data was then inputted into Graph pad Prism 7 software suite where a dose response curve is generated using the default “[Agonist] vs response(three parameters)” equation. […]

Test [2] has the same test system. Put plainly: Cellular ATP levels in sporadic PD patient fibroblasts, full ATP assay. As to conditions: 24 h, 3 sporadic PD patient fibroblasts; for EC50: 8-point range 0.06 nM-300 nM; for activity at 60 pM: max response with lowest dose of compound (0.06 nM), read-out: ATP % of vehicle, bottom %. The procedure: as §1
The ATP protocol is generally as described in Mortiboys et al 2008. Briefly, fibroblasts were cultured as and plated into white 384 well plates at a concentration of 5000 cells per well in 50 μl of media volume. The plates are left overnight in an incubator to allow the fibroblasts to adhere to the plate surface. The following morning the Glucose based medium is replaced with 25 μl of Galactose based medium. The plates were then spiked with the compounds using a ECHO 550 liquid handling system. The wells were dosed to provide an 8-point concentration range of 0.06 nM-300 nM of compound. After dosing the wells are topped up with a further 25 μl of Galactose based medium and then left in an incubator for 24 hours. Following this incubation, the medium is removed from the plate and the wells are washed twice with sterile PBS. The wells are filled with 25 μl of Sterile PBS followed by 12.5 μl of Lysis solution from the ATPlite™ Luminescence ATP detection assay system (Perkin Elmer), including 16 cell free wells to use as blank controls. The plate is then placed on a rotary shaker for 5 mins at 700 rpm. Following the shaking 12.5 μl of ATP substrate solution (Perkin Elmer) is added to each well and a further 5 min of shaking. The plate is then placed in darkness for 10 minutes prior to reading. Using a PHERAStar® plate reader, luminescence intensity is recorded. Following the ATP assay the plates are immediately assayed for DNA content in a CyQUANT® assay.
Immediately following The ATP assay DNA content is assessed with the CyQUANT® NF Cell Proliferation Assay Kit (ThermoFisher). CyQUANT® buffer is prepared immediately before the assay and is comprised of 1 μl CyQUANT® dye per ml×1 HBSS solution. 12.5 μl of CyQUANT® buffer is added to each well. Plate left in incubator for 1 hour then read on a PHERAStar© Plate reader with excitation at 497 nm and emission at 520 nm.
ATP Quantification for each well is determined using the following formula: […]
After the assays had been repeated in triplicate per line and compound the data was then inputted into Graph pad Prism 7 software suite where a dose response curve is generated using the default “[Agonist] vs response(three parameters)” equation.
From this EC50 values, lowest response and maximal response were taken and used to calculate the Geometric mean between the 5 different lines assessed.

Test [3] shares this test system. The test can be described thus: Cellular ATP levels in sporadic PD patient fibroblasts, Preliminary ATP assay. As to conditions: for activity at 0.1 µM / activity at 1 µM: Homo sapiens, Fibroblast; for activity at 0.1 µM: read-out: Average ATP Response 100 nM; for activity at 1 µM: read-out: Average ATP Response 1 μM. The procedure:
In some cases, a preliminary ATP protocol was used in which EC50 was not determined. The preliminary ATP protocol is generally as described in Mortiboys et al 2008. Briefly, fibroblasts were cultured and plated into white, clear-bottom 384 well plates at a concentration of 4000 cells per well in 50 μl of media volume. The plates are left overnight in an incubator to allow the fibroblasts to adhere to the plate surface. The following morning the Glucose based medium is replaced with 25 μl of Galactose based medium. The cells were then dosed with 100 nM and 1 μM concentrations of the compounds using a ECHO 550 liquid handling system. After dosing the wells are topped up with a further 25 μl of Galactose based medium and then left in an incubator for 24 hours. Following this incubation, the medium is removed from the plate and the wells are washed twice with sterile PBS. The wells are filled with 20 μl of Sterile PBS followed by 10 μl of Lysis solution from the ATPlite™ Luminescence ATP detection assay system (Perkin Elmer), including 14 cell free wells to use as blank controls. The plate is then placed on a rotary shaker for 10 mins at 700 rpm. Following the shaking 10 μl of ATP substrate solution (Perkin Elmer) is added to each well and a further 5 min of shaking. The plate is then incubated in the dark for 10 minutes prior to reading. Using a FLUOstar® Omega plate reader, luminescence intensity is recorded. Following the ATP assay the plates are immediately assayed for DNA content in a CyQUANT® assay.
Immediately following The ATP assay DNA content is assessed with the CyQUANT® NF Cell Proliferation Assay Kit (ThermoFisher). CyQUANT® buffer is prepared immediately before the assay and is comprised of 2 μl CyQUANT® dye per ml×1 HBSS solution. 10 μl of CyQUANT® buffer is added to each well. Cell plates were then incubated for 1 hour before being read on a FLUOStar® Plate reader with excitation at 497 nm and emission at 520 nm.
The ATP Quantification for each well is determined as set out above.

The mark [4] stands for this setting: 100 nM, 24 h, % of vehicle treated sPD fibroblasts, 3 sporadic PD patients.
Setting [5] is: 1 μM, 24 h, % of vehicle treated sPD fibroblasts, 3 sporadic PD patients.

Results on 12 molecules are retold here after patent US20250320246A1, “3-AZASTEROID COMPOUNDS FOR THE TREATMENT OF DISEASES RELATED TO MITROCHONDRIAL FUNCTION” (NZP UK LIMITED, priority 2022, published 2025).

The term EC50 denotes the concentration at which the effect is half-maximal.

Structures can show the parent of a compound that is named as a salt.

For `C[C@H](CCCC(=O)O)[C@H]1CC[C@H]2[C@@H]3[C@@H](O)C[C@@H]4CN(C)CC[C@]4(C)[C@H]3CC[C@]12C` [Compound 31b, N-Methyl-3-aza-7β-hydroxy-25-homo-5β-cholan-25-oic acid hydrotrifluoroacetate], in test [1] (Homo sapiens, Fibroblast), it took 6.1 nM to reach a half-maximal effect (EC50) and the activity at 60 pM turned out to be 86.5%. Moreover, in test [1] (Homo sapiens, Fibroblast, max response with highest dose of compound (300 nM), read-out: MMP % of vehicle, top %), the Emax turned out to be 95.1%. In test [2] (Homo sapiens, Fibroblast), the response was half-maximal at 0.266 nM (EC50) and the activity at 60 pM stood at 91.7%. In addition, the Emax at 0.3 µM in test [2] (Homo sapiens, Fibroblast, max response with highest dose of compound (300 nM), read-out: ATP % of vehicle, top %) came to 161%.

Consider `C[C@H](CCC(=O)O)[C@H]1CC[C@H]2[C@@H]3[C@@H](O)C[C@@H]4CN(C)CC[C@]4(C)[C@H]3CC[C@]12C` [Compound 33, N-Methyl-3-aza-7β-hydroxy-5β-cholan-24-oic acid hydrochloride], for which the values for the EC50 in test [1] (hydrochloride) and in test [2] (hydrochloride) were 18.3 nM and 0.75 nM, respectively. Further, the activity at 60 pM in test [1] (Homo sapiens, Fibroblast) was determined as 82.3%; in test [2] (Homo sapiens, Fibroblast), 88.8%.

Turning to `CC(CC(=O)O)NC(=O)CCC[C@@H](C)[C@H]1CC[C@H]2[C@@H]3[C@@H](O)C[C@@H]4CNCC[C@]4(C)[C@H]3CC[C@]12C` (stereo partly drawn) [Compound 74b, N-(3-Aza-7β-hydroxy-25-homo-5β-cholan-25-oyl)-3-aminobutanoic acid], the activity at 0.1 µM in test [3] (setting [4]) stood at 103%. In test [3] (setting [5]), the activity at 1 µM came out at 98.5%.

With `CC(C)C[C@H](NC(=O)CCC[C@@H](C)[C@H]1CC[C@H]2[C@@H]3[C@@H](O)C[C@@H]4CNCC[C@]4(C)[C@H]3CC[C@]12C)C(=O)O` [Compound 75b, N-(3-Aza-7β-hydroxy-25-homo-5β-cholan-25-oyl)-(S)-2-amino-4-methylpentanoic acid], the activity at 0.1 µM in test [3] (setting [4]) worked out at 112%. Further, the activity at 1 µM in test [3] (setting [5]) stood at 106%.

Regarding `C[C@H](CCCC(=O)NCCCC[C@H](N)C(=O)O)[C@H]1CC[C@H]2[C@@H]3[C@@H](O)C[C@@H]4CNCC[C@]4(C)[C@H]3CC[C@]12C` [Compound 76b, N-(3-Aza-7β-hydroxy-25-homo-5β-cholan-25-oyl)-(2S)-2,6-diaminohexanoic acid], the activity at 0.1 µM in test [3] (setting [4]) is 105%. In addition, the activity at 1 µM in test [3] (setting [5]) came to 106%.

As to `C[C@H](CCCC(=O)N[C@@H](Cc1ccc(O)cc1)C(=O)O)[C@H]1CC[C@H]2[C@@H]3[C@@H](O)C[C@@H]4CNCC[C@]4(C)[C@H]3CC[C@]12C` [Compound 77b, N-(3-Aza-7β-hydroxy-25-homo-5β-cholan-25-oyl)-(2S)-2-amino-3-(4-hydroxyphenyl)propanoic acid], the activity at 0.1 µM in test [3] (setting [4]) is 109%. The activity at 1 µM in test [3] (setting [5]) was determined as 113%.

On to `C[C@H](CCC(=O)N1CC2(COC2)C1)[C@H]1CC[C@H]2[C@@H]3[C@@H](O)C[C@@H]4CN(C(=O)OCc5ccccc5)CC[C@]4(C)[C@H]3CC[C@]12C` [Compound 78a, N-{(benzyloxycarbonyl)-3-aza-7β-hydroxy-5β-cholan-24-oyl}-2-oxa-6-azospiro{3,3}heptane], for which, in test [3] (setting [4]), the activity at 0.1 µM came to 121%. The activity at 1 µM in test [3] (setting [5]) is 120%.

Consider `C[C@H](CCC(=O)N1CCC(=O)CC1)[C@H]1CC[C@H]2[C@@H]3[C@@H](O)C[C@@H]4CN(C(=O)OCc5ccccc5)CC[C@]4(C)[C@H]3CC[C@]12C` [Compound 79a, N-{(benzyloxycarbonyl)-3-aza-7β-hydroxy-5β-cholan-24-oyl}-4-piperidone], for which the activity at 0.1 µM in test [3] (setting [4]) stood at 116%. For the same molecule, the activity at 1 µM in test [3] (setting [5]) is 122%.

Consider `C[C@H](CCCC(=O)NC1CCOC1)[C@H]1CC[C@H]2[C@@H]3[C@@H](O)C[C@@H]4CN(C(=O)OCc5ccccc5)CC[C@]4(C)[C@H]3CC[C@]12C` (stereo partly drawn) [Compound 80b, N-{(benzyloxycarbonyl)-3-aza-7β-hydroxy-25-homo-5β-cholan-25-oyl}-3-aminotetrahydrofuran], for which the activity at 0.1 µM in test [3] (setting [4]) came to 122%. For the same molecule, in test [3] (setting [5]), the activity at 1 µM is 120%.

Regarding `C[C@H](CCC(=O)N1Cc2ccccc2C1)[C@H]1CC[C@H]2[C@@H]3[C@@H](O)C[C@@H]4CNCC[C@]4(C)[C@H]3CC[C@]12C` [Compound 81a], in test [3] (setting [4]), the activity at 0.1 µM is 94.2%. Further, the activity at 1 µM in test [3] (setting [5]) is 102%.

Take `C[C@H](CCCC(=O)NC1CCOC1)[C@H]1CC[C@H]2[C@@H]3[C@@H](O)C[C@@H]4CNCC[C@]4(C)[C@H]3CC[C@]12C` (stereo partly drawn) [Compound 82b, N-{(3-aza-7β-hydroxy-25-homo-5β-cholan-25-oyl)}-3-aminotetrahydrofuran]: in test [3] (setting [4]), the activity at 0.1 µM came out at 96.2%. In addition, the activity at 1 µM in test [3] (setting [5]) was 97.5%.

On to “S-(3-Aza-7β-hydroxy-5β-cholan-24-oyl)-phenylmethanethiol [Compound 64a]”, for which the “ATP production relative to control levels” value in test [3] (100 nM) is “returning ATP production to control levels”. In test [3] (setting [4]), the “Average ATP Response 100 nM” value came to 118.2%. Also, in test [3] (setting [5]), the “Average ATP Response 1 μM” value stood at 111.4%.
